Experimental data published in patent US20230212171A1, “ALLOSTERIC EGFR INHIBITORS AND METHODS OF USE THEREOF” (Dana-Farber Cancer Institute, Inc., priority 2020, published 2023).
pIC50: −log10 of the molar value. Counter-ions that a name gives are not always drawn. Like-named read-outs stand apart in the source and are kept apart here.

How the values were obtained:
EGFR L858R/T790M = EGFR L858R/T790M (Homo sapiens, UniProt P00533, L858R/T790M); test: HTRF-based EGFR biochemical assay (L858R/T790M); details: enzyme 0.02 nM, ATP 100 µM, 30 min preincubation
EGFR L858R/T790M, sequence (P00533 25-1210 T790M/L858R): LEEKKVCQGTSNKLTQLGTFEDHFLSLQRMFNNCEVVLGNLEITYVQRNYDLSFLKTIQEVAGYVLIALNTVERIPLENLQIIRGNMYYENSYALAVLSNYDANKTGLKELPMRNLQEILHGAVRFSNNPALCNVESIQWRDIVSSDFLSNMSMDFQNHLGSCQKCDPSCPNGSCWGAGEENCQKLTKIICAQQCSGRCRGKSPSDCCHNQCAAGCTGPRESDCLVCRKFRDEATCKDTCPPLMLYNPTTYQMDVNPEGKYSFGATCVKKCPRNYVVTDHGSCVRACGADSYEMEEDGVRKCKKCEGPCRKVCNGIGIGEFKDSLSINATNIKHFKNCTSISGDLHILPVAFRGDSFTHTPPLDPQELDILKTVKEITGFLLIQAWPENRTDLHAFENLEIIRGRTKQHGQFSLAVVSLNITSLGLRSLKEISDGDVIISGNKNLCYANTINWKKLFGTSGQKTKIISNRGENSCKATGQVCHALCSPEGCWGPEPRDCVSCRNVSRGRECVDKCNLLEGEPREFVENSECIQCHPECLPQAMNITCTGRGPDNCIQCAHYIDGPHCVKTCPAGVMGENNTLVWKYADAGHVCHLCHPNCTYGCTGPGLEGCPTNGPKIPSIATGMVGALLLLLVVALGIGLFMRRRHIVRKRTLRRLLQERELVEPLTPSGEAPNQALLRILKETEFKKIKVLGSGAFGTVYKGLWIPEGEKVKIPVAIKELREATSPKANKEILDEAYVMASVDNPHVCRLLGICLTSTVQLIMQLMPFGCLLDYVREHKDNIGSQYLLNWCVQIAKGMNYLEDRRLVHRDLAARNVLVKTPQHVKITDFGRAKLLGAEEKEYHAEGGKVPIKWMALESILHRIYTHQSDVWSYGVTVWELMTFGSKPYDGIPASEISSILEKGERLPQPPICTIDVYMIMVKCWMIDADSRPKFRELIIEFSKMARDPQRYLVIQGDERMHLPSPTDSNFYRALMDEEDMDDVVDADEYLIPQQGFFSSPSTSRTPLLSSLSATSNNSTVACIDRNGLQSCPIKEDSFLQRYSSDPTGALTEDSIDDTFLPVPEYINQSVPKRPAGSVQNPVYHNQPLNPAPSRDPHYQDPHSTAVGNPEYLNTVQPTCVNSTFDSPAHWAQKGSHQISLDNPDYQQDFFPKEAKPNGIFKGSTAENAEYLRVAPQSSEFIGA
Experimental: (§1) EGFR biochemical activity measurements were carried out using the homogeneous time-resolved fluorescence (HTRF) assay (Cisbio). Inhibitors and DMSO normalizations were first dispensed to empty black low-volume 384-well plates (Corning) with D300 digital liquid dispenser (HP). All reactions were carried out at room temperature and solutions were added to plates with a Multidrop Combi Reagent Dispenser (ThermoFisher). The reaction mixture (10 µL final volume) contained 1 µM tyrosine kinase peptide-biotin substrate and mutant EGFR in a reaction buffer (50 mM HEPES pH 7.0, 5 mM MgCl2, 1 mM MnCl2, 0.01% BSA, 2 mM TCEP, 0.1 mM NaVO4). Enzyme concentrations were adjusted to accommodate varying kinase activities (L858R 0.1 nM, L858R/T790M 0.02 nM). Enzyme reaction solution (2× concentrations, 5 µL) was added to 384-well plates containing compounds and incubated for 30 mins. Enzyme reactions were initiated with the addition of 5 µL of ATP to a final concentration of 100 µM and reacted for 20 mins. Reactions were quenched with the addition of 10 µL of phospho-tyrosine antibody-Europium(III) cryptate (1-to-180 volume ratio) and Streptavidin-XL665 (46.7 nM) in EDTA-containing detection buffer, then incubated at room temperature for 1 hour, and read with a PHERAstar plate reader (excitation = 337 nm, emission = 620 nm and 665 nm). IC50 values were determined by inhibition curves (11-point curves from 1.0 µM to 0.130 nM or 23-point curves from 1.0 µM to 0.130 pM) in triplicate with non-linear least squares fit in GraphPad Prism 7.0d.

[1] = biological target: EGFR mutant L858R/T790M Ba/F3 cells (Homo sapiens, UniProt P00533, T790M/L858R, cells depend on it); test: Ba/F3 cell proliferation model (Cell Titer Glo), EGFR L858R/T790M; format: cell-based, murine; details: 72 hours
EGFR mutant L858R/T790M Ba/F3 cells, sequence (P00533 whole entry T790M/L858R): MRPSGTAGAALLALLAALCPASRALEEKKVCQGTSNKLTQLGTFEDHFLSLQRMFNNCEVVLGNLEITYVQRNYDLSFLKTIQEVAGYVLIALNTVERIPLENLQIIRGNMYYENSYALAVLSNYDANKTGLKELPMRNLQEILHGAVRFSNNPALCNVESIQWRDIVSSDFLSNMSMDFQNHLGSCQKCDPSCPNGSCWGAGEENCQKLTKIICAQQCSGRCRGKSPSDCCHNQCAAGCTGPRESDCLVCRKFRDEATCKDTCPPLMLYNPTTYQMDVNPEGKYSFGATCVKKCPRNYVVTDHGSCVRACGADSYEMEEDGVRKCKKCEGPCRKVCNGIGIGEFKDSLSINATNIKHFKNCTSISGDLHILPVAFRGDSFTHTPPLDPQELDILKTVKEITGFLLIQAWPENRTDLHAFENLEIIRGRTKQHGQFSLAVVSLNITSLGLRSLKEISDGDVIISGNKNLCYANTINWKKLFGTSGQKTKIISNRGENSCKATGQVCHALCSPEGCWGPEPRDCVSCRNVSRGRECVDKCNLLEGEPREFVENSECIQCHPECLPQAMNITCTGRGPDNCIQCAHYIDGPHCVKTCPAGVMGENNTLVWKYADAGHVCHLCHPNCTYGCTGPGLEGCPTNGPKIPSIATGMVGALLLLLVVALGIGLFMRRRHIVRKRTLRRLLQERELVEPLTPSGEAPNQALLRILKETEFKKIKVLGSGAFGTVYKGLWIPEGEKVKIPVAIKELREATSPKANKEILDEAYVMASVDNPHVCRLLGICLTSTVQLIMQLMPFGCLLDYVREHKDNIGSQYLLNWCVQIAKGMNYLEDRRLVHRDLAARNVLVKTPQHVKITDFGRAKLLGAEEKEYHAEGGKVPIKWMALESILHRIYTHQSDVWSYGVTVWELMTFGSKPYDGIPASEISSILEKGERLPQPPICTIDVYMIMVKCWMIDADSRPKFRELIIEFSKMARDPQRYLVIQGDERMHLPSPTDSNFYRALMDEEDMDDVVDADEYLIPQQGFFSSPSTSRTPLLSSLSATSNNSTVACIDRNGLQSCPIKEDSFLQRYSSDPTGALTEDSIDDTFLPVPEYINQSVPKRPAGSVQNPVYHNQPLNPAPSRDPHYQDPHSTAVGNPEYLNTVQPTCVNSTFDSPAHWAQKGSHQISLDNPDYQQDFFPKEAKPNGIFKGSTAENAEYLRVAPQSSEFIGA
Excerpt: (§2) The EGFR mutant L858R and L858R/T790M Ba/F3 cells have been previously described (Zhou, W., et al. Nature 462, 2009, 1070-1074). All cell lines were maintained in RPMI 1640 (Cellgro; Mediatech Inc., Herndon, CA) supplemented with 10% FBS, 100 units/mL penicillin, 100 units/mL streptomycin. The EGFR I941R mutation was introduced via site directed mutagenesis using the Quick Change Site-Directed Mutagenesis kit (Stratagene; La Jolla, CA) according to the manufacturer’s instructions. All constructs were confirmed by DNA sequencing. The constructs were shuttled into the retroviral vector JP1540 using the Cre-recombination system (Agilent Technologies, Santa Clara, CA). Ba/F3 cells were then infected with retrovirus per standard protocols, as described previously (Zhou, et al, Nature 2009). Stable clones were obtained by selection in puromycin (2 µg/ml).
(§3) Growth and inhibition of growth was assessed by the Cell Titer Glo assay (Promega, Madison, WI) and was performed according to the manufacturer’s instructions. The Cell Titer Glo assay is a luminescence-based method used to determine the number of viable cells based on quantitation of the ATP present, which is directly proportional to the amount of metabolically active cells present. Ba/F3 cells of different EGFR genotypes were exposed to compounds as a single agent or in combination with 1 µg/mL cetuximab for 72 hours and the number of cells used per experiment was determined empirically as has been previously established (Zhou, et al., Nature 2009). All experimental points were set up in triplicates in 384-well plates and all experiments were repeated at least three times. […] The curves were fitted using a non-linear regression model with a sigmoidal dose response.

EGFR L858R = EGFR L858R (Homo sapiens, UniProt P00533, L858R); test: HTRF-based EGFR biochemical assay (L858R); details: enzyme 0.1 nM, ATP 100 µM, 30 min preincubation
EGFR L858R, sequence (P00533 25-1210 L858R): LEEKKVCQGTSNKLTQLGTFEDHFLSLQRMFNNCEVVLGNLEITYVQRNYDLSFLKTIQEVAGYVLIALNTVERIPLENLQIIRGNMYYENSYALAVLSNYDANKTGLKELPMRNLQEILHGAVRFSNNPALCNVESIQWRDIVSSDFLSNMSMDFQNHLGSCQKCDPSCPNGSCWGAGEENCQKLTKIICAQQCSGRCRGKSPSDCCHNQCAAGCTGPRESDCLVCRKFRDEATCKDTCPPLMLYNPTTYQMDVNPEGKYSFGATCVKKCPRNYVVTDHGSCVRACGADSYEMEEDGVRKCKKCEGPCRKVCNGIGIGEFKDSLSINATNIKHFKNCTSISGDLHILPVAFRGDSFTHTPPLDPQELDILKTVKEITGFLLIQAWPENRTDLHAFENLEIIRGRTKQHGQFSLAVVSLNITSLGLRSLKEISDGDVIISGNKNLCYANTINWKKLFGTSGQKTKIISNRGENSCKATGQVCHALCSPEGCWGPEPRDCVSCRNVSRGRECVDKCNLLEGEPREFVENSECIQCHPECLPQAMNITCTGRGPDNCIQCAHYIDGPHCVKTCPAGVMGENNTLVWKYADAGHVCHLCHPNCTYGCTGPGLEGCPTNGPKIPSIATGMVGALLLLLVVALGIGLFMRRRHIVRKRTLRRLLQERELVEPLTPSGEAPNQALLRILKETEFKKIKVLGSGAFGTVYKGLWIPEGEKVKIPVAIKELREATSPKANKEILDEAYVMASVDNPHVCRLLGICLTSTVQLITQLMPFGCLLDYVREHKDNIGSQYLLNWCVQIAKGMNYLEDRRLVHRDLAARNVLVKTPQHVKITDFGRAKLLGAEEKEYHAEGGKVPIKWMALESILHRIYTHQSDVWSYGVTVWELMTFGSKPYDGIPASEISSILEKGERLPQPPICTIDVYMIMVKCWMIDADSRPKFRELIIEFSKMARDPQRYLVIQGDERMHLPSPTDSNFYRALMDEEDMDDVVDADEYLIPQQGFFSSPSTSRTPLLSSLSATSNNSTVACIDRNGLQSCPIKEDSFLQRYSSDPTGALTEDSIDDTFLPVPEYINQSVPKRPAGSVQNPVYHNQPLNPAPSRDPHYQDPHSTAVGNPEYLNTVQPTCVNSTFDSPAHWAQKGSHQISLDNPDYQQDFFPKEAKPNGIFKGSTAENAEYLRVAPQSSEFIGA
Experimental: as §1

[2] = biological target: EGFR mutant L858R Ba/F3 cells (Homo sapiens, UniProt P00533, L858R, cells depend on it); test: Ba/F3 cell proliferation model (Cell Titer Glo), EGFR L858R; format: cell-based, murine; details: single agent, 72 hours; read-out: Cell ICso BaF3 EGFR L858R
EGFR mutant L858R Ba/F3 cells, sequence (P00533 whole entry L858R): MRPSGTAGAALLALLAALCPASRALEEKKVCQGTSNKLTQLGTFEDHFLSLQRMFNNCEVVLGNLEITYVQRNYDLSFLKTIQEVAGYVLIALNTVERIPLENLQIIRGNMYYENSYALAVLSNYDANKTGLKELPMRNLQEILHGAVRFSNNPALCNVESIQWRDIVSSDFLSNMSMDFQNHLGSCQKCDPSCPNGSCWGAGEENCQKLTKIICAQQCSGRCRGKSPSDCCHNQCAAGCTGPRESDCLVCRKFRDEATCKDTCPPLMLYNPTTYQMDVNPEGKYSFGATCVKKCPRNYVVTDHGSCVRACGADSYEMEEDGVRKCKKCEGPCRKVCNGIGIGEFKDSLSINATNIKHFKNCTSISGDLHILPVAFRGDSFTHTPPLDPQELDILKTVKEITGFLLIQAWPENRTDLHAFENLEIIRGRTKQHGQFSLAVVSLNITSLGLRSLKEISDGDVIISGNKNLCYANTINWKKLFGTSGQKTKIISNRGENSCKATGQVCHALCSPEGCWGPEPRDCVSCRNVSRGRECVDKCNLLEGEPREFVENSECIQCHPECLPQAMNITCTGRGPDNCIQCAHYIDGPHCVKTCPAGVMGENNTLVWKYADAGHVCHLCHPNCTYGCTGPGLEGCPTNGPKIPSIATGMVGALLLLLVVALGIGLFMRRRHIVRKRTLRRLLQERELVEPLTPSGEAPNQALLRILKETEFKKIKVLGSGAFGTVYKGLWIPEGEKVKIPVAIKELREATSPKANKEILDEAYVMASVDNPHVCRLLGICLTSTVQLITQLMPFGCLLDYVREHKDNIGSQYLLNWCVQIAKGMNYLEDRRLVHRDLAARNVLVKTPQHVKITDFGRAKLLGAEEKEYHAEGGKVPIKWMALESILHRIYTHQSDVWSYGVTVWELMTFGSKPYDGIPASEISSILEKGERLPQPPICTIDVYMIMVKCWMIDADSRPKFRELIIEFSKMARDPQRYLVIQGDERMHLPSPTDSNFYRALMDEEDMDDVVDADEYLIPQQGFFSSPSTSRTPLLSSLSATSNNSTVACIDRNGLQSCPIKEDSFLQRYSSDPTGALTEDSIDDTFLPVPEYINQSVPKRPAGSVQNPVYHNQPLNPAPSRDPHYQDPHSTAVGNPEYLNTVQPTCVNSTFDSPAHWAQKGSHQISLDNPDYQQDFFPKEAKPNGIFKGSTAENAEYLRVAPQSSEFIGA
Excerpt: as §2, §3

[3] = single agent, read-out: Cell IC50 BaF3 EGFR L858R/T790M

Row | pIC50 (EGFR L858R/T790M) | GI50 [1, 3] [µM] | pIC50 (EGFR L858R) | GI50 [2] [µM] | GI50 ([1]; in combination with 1 µg/mL cetuximab, read-out: Cell IC50 BaF3 EGFR L858R/T790M (+ cetux.)) [µM] | Compound
1 | 9.70 | 0.01 | 9.05 | 0.04 | – | CN1CCC(c2ccc(-c3cc4ccn([C@@H](c5nc6ccccc6[nH]5)c5cc(F)ccc5O)c(=O)c4s3)cc2)CC1 (single isomer, unassigned) [Compound 015]
2 | 7.77 | – | 7.39 | – | – | CN1CCC(c2ccc(-c3cc4ccn([C@H](c5nc6ccccc6[nH]5)c5cc(F)ccc5O)c(=O)c4s3)cc2)CC1 (single isomer, unassigned) [Compound 016]
3 | 9.00 | 2.3 | 8.30 | – | 0.09 | CN1CCC(c2ccc(-c3cc4c(=O)n(C(C(=O)Nc5nccs5)c5ccccc5)cnn4c3)cc2)CC1 (stereo not drawn) [Compound 001, 2-(6-(4-(1-Methylpiperidin-4-Yl)Phenyl)-4-Oxopyrrolo[2,1-f][1,2,4]-Triazin-3(4H)-Yl)-2-Phenyl-N-(Thiazol-2-yl)Acetamide;Hydrochloride]
4 | < 7.00 | 2.63 | < 7.00 | 2.24 | – | CN1CCC(c2ccc(-c3cc4c(=O)n(C(c5ccccc5)c5nc6ccccc6[nH]5)cnn4c3)cc2)CC1 (stereo not drawn) [Compound 002, 3-((1H-Benzo[d]Imidazol-2-Yl)(Phenyl)Methyl)-6-(4-(1-Methylpiperidin-4-Yl)Phenyl)Pyrrolo [2,1-f][1,2,4]Triazin-4(3H)-One;Hydrochloride]
5 | 7.54 | 0.89 | 7.51 | 0.85 | – | CN1CCC(c2ccc(-c3cc4ncn(C(C(=O)Nc5nccs5)c5ccccc5)c(=O)c4s3)cc2)CC1 (stereo not drawn) [Compound 003, 2-(6-(4-(1-Methylpiperidin-4-Yl)Phenyl)-4-Oxothieno[3,2-d)Pyrimidin-3(4H)-Yl)-2-Phenyl-N-(Thiazol-2-Yl)Acetamide]
6 | < 7.00 | 3.68 | < 7.00 | 4.57 | – | CN1CCC(c2ccc(-c3cc4ncn(C(c5ccccc5)c5nc6ccccc6[nH]5)c(=O)c4s3)cc2)CC1 (stereo not drawn) [Compound 004, 3-((1H-benzo[d]imidazol-2-yl)(phenyl)methyl)-6-(4-(1-methylpiperidin-4-yl)phenyl)thieno[3,2-d]pyrimidin-4(3H)-one]
7 | 9.10 | 2.04 | 8.52 | 1.55 | – | CN1CCC(c2ccc(-c3cc4c(=O)n(C(C(=O)Nc5nccs5)c5ccccc5)ccc4s3)cc2)CC1 (stereo not drawn) [Compound 005, 2-[2-[4-(1-methyl-4-piperidyl)phenyl]-4-oxo-thieno[3,2-c]pyridin-5-yl]-2-phenyl-N-thiazol-2-yi-acetamide]
8 | 7.72 | 3.55 | 7.68 | 3.13 | – | CN1CCC(c2ccc(-c3cc4c(=O)n(C(c5ccccc5)c5nc6ccccc6[nH]5)ccc4s3)cc2)CC1 (stereo not drawn) [Compound 006]
9 | 9.22 | 0.57 | 8.52 | 0.36 | – | CN1CCC(c2ccc(-c3cc4ccn(C(C(=O)Nc5nccs5)c5ccccc5)c(=O)c4s3)cc2)CC1 (stereo not drawn) [Compound 007, 2-[2-[4-(1-methyl-4-piperidyl)phenyl]-7-oxo-thieno[2,3-c]pyridin-6-yl]-2-phenyl-N-thiazol-2-yl-acetamide;hydrochloride]
10 | 7.54 | 1.67 | 7.57 | 1.87 | – | CN1CCC(c2ccc(-c3cc4ccn(C(c5ccccc5)c5nc6ccccc6[nH]5)c(=O)c4s3)cc2)CC1 (stereo not drawn) [Compound 008, 6-[1H-benzimidazol-2-yl(phenyl)methyl]-2-[4-(1-methyl-4-piperidyl)phenyl]thieno[2,3-c]pyridin-7-one;hydrochloride]
11 | 9.22 | 0.02 | 8.70 | 0.07 | – | CN1CCC(c2ccc(-c3cc4ccn(C(c5nc6ccccc6[nH]5)c5cc(F)ccc5O)c(=O)c4s3)cc2)CC1 (stereo not drawn) [Compound 009, 6-[1H-benzimidazol-2-yl-(5-fluoro-2-hydroxy-phenyl)methyl]-2-[4-(1-methyl-4-piperidyl)phenyl]thieno[2,3-c]pyridin-7-one;dihydrochloride]
12 | – | 1.09 | – | – | – | CN1CCC(c2ccc(-c3ccc4c(c3)N(C)C(=O)N(C(c3nc5ccccc5[nH]3)c3cc(F)ccc3O)C4)cc2)CC1 (stereo not drawn) [Compound 017, 3-[1H-benzimidazol-2-yl-(5-fluoro-2-hydroxy-phenyl)methyl]-1-methyl-7-[4-(1-methyl-4-piperidyl)phenyl]-4H-quinazolin-2-one;dihydrochloride]
13 | 9.30 | – | 9.15 | – | – | CN1CCC(c2ccc(-c3cc4c(F)cn(C(C(=O)Nc5nccs5)c5cc(F)ccc5O)c(=O)c4s3)cc2)CC1 (stereo not drawn) [Compound 019, 2-(4-Fluoro-2-(4-(1-Methylpiperidin-4-Yl)Phenyl)-7-Oxothieno[2,3-c]Pyridin-6(7H)-Yl)-2-(5-Fluoro-2-Hydroxyphenyl)-N-(Thiazol-2-Yl)Acetamide]
14 | 9.70 | – | 9.70 | – | – | CN1CCC(c2ccc(-c3cc4c(F)cn(C(c5nc6ccccc6[nH]5)c5cc(F)ccc5O)c(=O)c4s3)cc2)CC1 (stereo not drawn) [Compound 020, 6-((1H-Benzo[d]Imidazol-2-Yl)(5-Fluoro-2-Hydroxyphenyl)Methyl)-4-Fluoro-2-(4-(1-methylpiperidin-4-Yl)Phenyl)Thieno[2,3-c]Pyridin-7(6H)-One]
15 | 9.22 | – | 8.70 | – | – | CN1CCC(c2ccc(-c3nc4c(s3)C(=O)N(C(C(=O)Nc3nccs3)c3cc(F)ccc3O)CC4)cc2)CC1 (stereo not drawn) [Compound 021, 2-(5-Fluoro-2-hydroxyphenyl)-2-(2-(4-(1-methylpiperidin-4-yl)phenyl)-4-oxo-6,7-dihydrothiazolo[5,4-c]pyridin-5(4H)-yl)-N-(thiazol-2-yl)acetamide]
16 | 7.96 | – | 7.92 | – | – | CN1CCC(c2ccc(-c3nc4c(s3)C(=O)N(C(c3nc5ccccc5[nH]3)c3cc(F)ccc3O)CC4)cc2)CC1 (stereo not drawn) [Compound 022, 5-((1H-Benzo[d]imidazol-2-yl)(5-fluoro-2-hydroxyphenyl)methyl)-2-(4-(1-methylpiperidin-4-yl)phenyl)-6,7-dihydrothiazolo[5,4-c]pyridin-4(5H)-one]
17 | 8.52 | – | 8.15 | – | – | CN1CCC(c2ccc(-c3nc4ccn(C(c5nc6ccccc6[nH]5)c5cc(F)ccc5O)c(=O)c4s3)cc2)CC1 (stereo not drawn) [Compound 023, 5-((1H-Benzo[d]imidazol-2-yl)(5-fluoro-2-hydroxyphenyl)methyl)-2-(4-(1-methylpiperidin-4-yl)phenyl)thiazolo[5,4-c]pyridin-4(5H)-one]
18 | 9.15 | – | 8.70 | – | – | [2H]C(c1nc2ccccc2[nH]1)(c1cc(F)ccc1O)n1ccc2cc(-c3ccc(C4CCN(C)CC4)cc3)sc2c1=O (stereo not drawn) [Compound 024, 6-((1H-Benzo[d]Imidazol-2-yl)(5-Fluoro-2-Hydroxyphenyl)Methyl-d)-2-(4-(1-Methylpiperidin-4-Yl)Phenyl)Thieno[2,3-c]Pyridin-7(6H)-One]
19 | 8.15 | – | 8.05 | – | – | CN1CCC(c2ccc(-c3cc4ccn(C(c5ccccc5)c5cc6ccccc6[nH]5)c(=O)c4s3)cc2)CC1 (stereo not drawn) [Compound 025, 6-((1H-Indol-2-Yl)(Phenyl)Methyl)-2-(4-(1-Methylpiperidin-4-Yl)Phenyl)Thieno[2,3-c]Pyridin-7(6H)-One]
